Key:
Type in all cases: in vivo
[1] = test system: slender amaranth (Amaranthus viridis L.); experiment: Test Example 2: herbicidal effect by soil application to upland field; conditions: soil surface spray, upland field soil, 1,000 g active ingredient per hectare, 21st day after application
Method in brief: (§1)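 Soil surface treatment after sowing: wettable powder in water, 1,000 g a.i./ha, spray volume 1,000 L/ha. Greenhouse. Scored on a standard herbicidal scale at day 21.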

[2] = test system: velvetleaf (Abutilon theophrasti medicus); experiment: as above; conditions: soil surface spray, upland field soil, 1,000 g active ingredient per hectare, 21st day after application
Method in brief: as §1

[3] = test system: green foxtail (Setaria viridis (L.) P. Beauv.); experiment: as above; conditions: soil surface spray, upland field soil, 1,000 g active ingredient per hectare, 21st day after application
Method in brief: as §1

[4] = test system: barnyardgrass (Echinochloa crus-galli (L.) P. Beauv. var. crus-galli); experiment: as above; conditions: soil surface spray, upland field soil, 1,000 g active ingredient per hectare, 21st day after application
Method in brief: as §1

[5] = test system: slender amaranth (Amaranthus viridis L.); experiment: Test Example 3: herbicidal effect by application to upland field (foliage treatment); conditions: 14th day after application; for herbicidal effect, Slender Amaranth: foliage treatment, 1,000 g active ingredient per 1 hectare, greenhouse
Method in brief: (§2)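 Post-emergence spray at 1,000 g AI/ha of wettable powder in water (1,000 L/ha), onto seedlings grown 2 weeks in greenhouse field-soil pots. Graded day 14.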

[6] = test system: velvetleaf (Abutilon theophrasti medicus); experiment: as above; conditions: 14th day after application; for herbicidal effect, Velvetleaf: foliage treatment, 1,000 g active ingredient per 1 hectare, greenhouse
Method in brief: as §2

[7] = test system: green foxtail (Setaria viridis (L.) P. Beauv.); experiment: as above; conditions: 14th day after application; for herbicidal effect, Green Foxtail: foliage treatment, 1,000 g active ingredient per 1 hectare, greenhouse
Method in brief: as §2

[8] = test system: barnyardgrass (Echinochloa crus-galli (L.) P. Beauv. var. crus-galli); experiment: as above; conditions: 14th day after application; for herbicidal effect, Barnyardgrass: foliage treatment, 1,000 g active ingredient per 1 hectare, greenhouse
Method in brief: as §2

[9] = test system: early watergrass (Echinochloa oryzicola Vasing); experiment: Test Example 1: herbicidal effect by soil application to paddy field; conditions: paddy field soil application; active ingredient 1,000 g per 1 hectare; wettable powder added dropwise to water surface the day after sowing; examined on the 21st day after application
Method in brief: (§3)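 Plants were sown in flooded (3 cm) paddy soil and evaluated for herbicidal effect 21 days after soil application in a greenhouse.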

[10] = test system: heartshape false pickerelweed (Monochoria vaginalis (Burm.f.) C.Presl); experiment: as above; conditions: paddy field soil application; active ingredient 1,000 g per 1 hectare; wettable powder added dropwise to water surface the day after sowing; examined on the 21st day after application
Method in brief: as §3

[11] = test system: Japanese bulrush (Scirpus juncoides Roxb.); experiment: as above; conditions: paddy field soil application; active ingredient 1,000 g per 1 hectare; wettable powder added dropwise to water surface the day after sowing; examined on the 21st day after application
Method in brief: as §3

[12] = foliage treatment, plants grown two weeks, 1,000 g active ingredient per hectare

Structure (SMILES) | herbicidal effect (index), Slender Amaranth [1] | herbicidal effect (index), Velvetleaf [2] | herbicidal effect (index), Green Foxtail [3] | herbicidal effect (index), Barnyardgrass [4] | herbicidal effect, Slender Amaranth [5] | herbicidal effect, Velvetleaf [6] | herbicidal effect, Green Foxtail [7] | herbicidal effect, Barnyardgrass [8] | herbicidal effect, Echinochloa oryzicola Vasing [9] | herbicidal effect, Monochoria vaginalis (Burm. f.) C. Presl [10] | herbicidal effect, Scirpus juncoides Roxb. [11] | herbicidal effect (index), Slender Amaranth [5, 12] | herbicidal effect (index), Velvetleaf [6, 12] | herbicidal effect (index), Green Foxtail [7, 12] | herbicidal effect (index), Barnyardgrass [8, 12]
CN(C)C=Nn1c(C(F)(F)F)ccc(C(=O)C2=C(O)CCCC2=O)c1=O [I-186] | 5 (90% or more of herbicidal effect and crop phytotoxicity) | 5 (90% or more of herbicidal effect and crop phytotoxicity) | 5 (90% or more of herbicidal effect and crop phytotoxicity) | 5 (90% or more of herbicidal effect and crop phytotoxicity) | 5 (90% or more of herbicidal effect and crop phytotoxicity) | 5 (90% or more of herbicidal effect and crop phytotoxicity) | 5 (90% or more of herbicidal effect and crop phytotoxicity) | 5 (90% or more of herbicidal effect and crop phytotoxicity) | 5 (90% or more of herbicidal effect and crop phytotoxicity) | 5 (90% or more of herbicidal effect and crop phytotoxicity) | 5 (90% or more of herbicidal effect and crop phytotoxicity) |  |  |  | 
O=C1CCCC(O)=C1C(=O)c1ccc(C(F)(F)F)n(NCC2CC2)c1=O [I-164] | 5 (90% or more of herbicidal effect and crop phytotoxicity) | 5 (90% or more of herbicidal effect and crop phytotoxicity) | 5 (90% or more of herbicidal effect and crop phytotoxicity) | 5 (90% or more of herbicidal effect and crop phytotoxicity) | 5 (90% or more of herbicidal effect and crop phytotoxicity) | 5 (90% or more of herbicidal effect and crop phytotoxicity) | 5 (90% or more of herbicidal effect and crop phytotoxicity) | 5 (90% or more of herbicidal effect and crop phytotoxicity) | 5 (90% or more of herbicidal effect and crop phytotoxicity) | 5 (90% or more of herbicidal effect and crop phytotoxicity) | 5 (90% or more of herbicidal effect and crop phytotoxicity) |  |  |  | 
CCCCCCCC(=O)Oc1c(C(=O)c2ccc(C(F)(F)F)n(CC3CCCO3)c2=O)cnn1C (stereo not drawn) [IV-130] | 5 (90% or more of herbicidal effect and crop phytotoxicity) | 5 (90% or more of herbicidal effect and crop phytotoxicity) | 4 (70 to less than 90% of herbicidal effect and crop phytotoxicity) | 4 (70 to less than 90% of herbicidal effect and crop phytotoxicity) | 5 (90% or more of herbicidal effect and crop phytotoxicity) | 4 (70 to less than 90% of herbicidal effect and crop phytotoxicity) | 4 (70 to less than 90% of herbicidal effect and crop phytotoxicity) | 5 (90% or more of herbicidal effect and crop phytotoxicity) | 5 (90% or more of herbicidal effect and crop phytotoxicity) | 5 (90% or more of herbicidal effect and crop phytotoxicity) | 5 (90% or more of herbicidal effect and crop phytotoxicity) |  |  |  | 
CCCS(=O)(=O)Oc1c(C(=O)c2ccc(C(F)(F)F)n(C)c2=O)cnn1C [IV-196] | 5 (90% or more of herbicidal effect and crop phytotoxicity) | 5 (90% or more of herbicidal effect and crop phytotoxicity) | 4 (70 to less than 90% of herbicidal effect and crop phytotoxicity) | 5 (90% or more of herbicidal effect and crop phytotoxicity) | 5 (90% or more of herbicidal effect and crop phytotoxicity) | 5 (90% or more of herbicidal effect and crop phytotoxicity) | 3 (50 to less than 70% of herbicidal effect and crop phytotoxicity) | 4 (70 to less than 90% of herbicidal effect and crop phytotoxicity) | 5 (90% or more of herbicidal effect and crop phytotoxicity) | 5 (90% or more of herbicidal effect and crop phytotoxicity) | 5 (90% or more of herbicidal effect and crop phytotoxicity) |  |  |  | 
CC(C)n1c(C(F)(F)F)ccc(C(=O)C2=C(O)CCCC2=O)c1=O [I-4] | 5 (90% or more of herbicidal effect and crop phytotoxicity) | 5 (90% or more of herbicidal effect and crop phytotoxicity) | 4 (70 to less than 90% of herbicidal effect and crop phytotoxicity) | 5 (90% or more of herbicidal effect and crop phytotoxicity) |  |  |  |  | 5 (90% or more of herbicidal effect and crop phytotoxicity) | 5 (90% or more of herbicidal effect and crop phytotoxicity) | 5 (90% or more of herbicidal effect and crop phytotoxicity) | 5 (90% or more of herbicidal effect and crop phytotoxicity) | 5 (90% or more of herbicidal effect and crop phytotoxicity) | 3 (50 to less than 70% of herbicidal effect and crop phytotoxicity) | 5 (90% or more of herbicidal effect and crop phytotoxicity)
O=C1CCCC(O)=C1C(=O)c1ccc(C(F)(F)F)n(-c2ccsc2)c1=O [I-148] | 5 (90% or more of herbicidal effect and crop phytotoxicity) | 5 (90% or more of herbicidal effect and crop phytotoxicity) | 5 (90% or more of herbicidal effect and crop phytotoxicity) | 5 (90% or more of herbicidal effect and crop phytotoxicity) | 5 (90% or more of herbicidal effect and crop phytotoxicity) | 5 (90% or more of herbicidal effect and crop phytotoxicity) | 5 (90% or more of herbicidal effect and crop phytotoxicity) | 5 (90% or more of herbicidal effect and crop phytotoxicity) | 5 (90% or more of herbicidal effect and crop phytotoxicity) | 5 (90% or more of herbicidal effect and crop phytotoxicity) | 5 (90% or more of herbicidal effect and crop phytotoxicity) |  |  |  | 

From patent US8076487B2, “Pyridone derivative and herbicide” (Kumiai Chemical Industry Co., Ltd., priority 2006, dated 2011)
